The numbers were not newly measured in patent publication US20110183005A1, “PROCESS FOR THE PREPARATION OF CO[…] OF STABILIZED HYPOBROMITES” (BROMINE COMPOUNDS LTD., priority 2002, published 2011), which cites them from elsewhere.

The conditions of this data set: at 25° C.

In the case of `OBr` [Hypobromous acid], the pK is 8.8.
